Test results published in US6355799B1, “Substituted benzene compounds, process for their preparation, and herbicidal and defoliant compositions containing them” (ISK Americas Incorporated, priority 1997, dated 2002).

Assays:
Format in all cases: in vivo
[1] = tested on: field corn (Zea mays L., var. Dekalb 535, CORN); assay: Pre-emerge test, crop safety; details: pre-emerge, 14 days after application, rating scale 0-100
Outline: (§1)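 Fourteen days after spraying, crop and weed injury was graded visually from 0, no effect, to 100, every plant dead. Test substances were dissolved in acetone and applied at 15–1000 g ai/ha with a flat-fan nozzle. Application was either pre-emergence, one day after sowing, or post-emergence at the 2–3 leaf stage.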

[2] = tested on: upland rice (Oryza sp., var. Tebonnet, RICE); assay: Pre-emerge test, crop safety; details: pre-emerge, 14 days after application, rating scale 0-100
Outline: as §1

[3] = tested on: barnyardgrass (Echinochloa crus-galli, ECHCG); assay: Pre-emerge test, greenhouse herbicide activity screening; details: pre-emerge, 14 days after application, rating scale 0-100
Outline: as §1

[4] = tested on: green foxtail (Setaria viridis, SETVI); assay: as above; details: pre-emerge, 14 days after application, rating scale 0-100
Outline: as §1

[5] = tested on: lambsquarters (Chenopodium album, CHEAL); assay: as above; details: pre-emerge, 14 days after application, rating scale 0-100
Outline: as §1

[6] = tested on: velvetleaf (Abutilon theophrasti, ABUTH); assay: as above; details: pre-emerge, 14 days after application, rating scale 0-100
Outline: as §1

[7] = tested on: ivyleaf morningglory (Ipomoea hederacea, IPOHE); assay: as above; details: pre-emerge, 14 days after application, rating scale 0-100
Outline: as §1

[8] = tested on: sicklepod (Cassia obtusifolia, CASOB); assay: as above; details: pre-emerge, 14 days after application, rating scale 0-100
Outline: as §1

[9] = tested on: large crabgrass (Digitaria sanguinalis, DIGSA); assay: as above; details: pre-emerge, 14 days after application, rating scale 0-100
Outline: as §1

[10] = tested on: johnsongrass (Sorghum halepense, SORHA); assay: as above; details: pre-emerge, 14 days after application, rating scale 0-100
Outline: as §1

[11] = tested on: field corn (Zea mays L., var. Dekalb 535, CORN); assay: Post-emerge test, crop safety; details: rating scale 0-100 (0 no damage, 100 complete death), 14 days after application
Outline: as §1

[12] = tested on: upland rice (Oryza sp., var. Tebonnet, RICE); assay: Post-emerge test, crop safety; details: rating scale 0-100 (0 no damage, 100 complete death), 14 days after application
Outline: as §1

[13] = tested on: barnyardgrass (Echinochloa crus-galli, ECHCG); assay: Post-emerge test, greenhouse herbicide activity screening; details: rating scale 0-100 (0 no damage, 100 complete death), 14 days after application
Outline: (§2)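 Sandy loam pots; pre-emerge: sown 1 d pre-spray, surface-watered after, then bottom-watered. Post-emerge: sown 8–21 d before, 2–3 leaf stage, + 0.25% v/v NIS, bottom-watered. Acetone, 187 l/ha track spray, 15–1000 g ai/ha. 0–100 injury score, day 14.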

[14] = tested on: green foxtail (Setaria viridis, SETVI); assay: as above; details: rating scale 0-100 (0 no damage, 100 complete death), 14 days after application
Outline: as §2

[15] = tested on: lambsquarters (Chenopodium album, CHEAL); assay: as above; details: rating scale 0-100 (0 no damage, 100 complete death), 14 days after application
Outline: as §2

[16] = tested on: velvetleaf (Abutilon theophrasti, ABUTH); assay: as above; details: rating scale 0-100 (0 no damage, 100 complete death), 14 days after application
Outline: as §2

[17] = tested on: ivyleaf morningglory (Ipomoea hederacea, IPOHE); assay: as above; details: rating scale 0-100 (0 no damage, 100 complete death), 14 days after application
Outline: as §2

[18] = tested on: sicklepod (Cassia obtusifolia, CASOB); assay: as above; details: rating scale 0-100 (0 no damage, 100 complete death), 14 days after application
Outline: as §2

[19] = tested on: large crabgrass (Digitaria sanguinalis, DIGSA); assay: as above; details: rating scale 0-100 (0 no damage, 100 complete death), 14 days after application
Outline: as §2

[20] = tested on: common ragweed (Ambrosia artemisizfolia L., AMBEL); assay: as above; details: rating scale 0-100 (0 no damage, 100 complete death), 14 days after application
Outline: as §2

[21] = tested on: johnsongrass (Sorghum halepense, SORHA); assay: as above; details: rating scale 0-100 (0 no damage, 100 complete death), 14 days after application
Outline: as §2

[22] = tested on: redroot pigweed (Amaranthus retroflexus, AMARE); assay: as above; details: rating scale 0-100 (0 no damage, 100 complete death), 14 days after application
Outline: as §2

[23] = tested on: redroot pigweed (Amaranthus retroflexus, AMARE); assay: Pre-emerge test, greenhouse herbicide activity screening; details: pre-emerge, 14 days after application, rating scale 0-100
Outline: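 Compounds in acetone were track-sprayed at 15-1000 g ai/ha (187 l/ha) on sandy loam pots: pre-emerge one day after seeding, post-emerge at 2-3 leaf stage with 0.25% v/v non-ionic surfactant. Phytotoxicity was rated 14 days later on a 0 (no damage) to 100 (complete death) scale.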

CCOC(=O)C(Cl)(C#N)Cc1c(OC)c(Cl)cc(F)c1-n1c(=O)cc(C(F)(F)F)n(C)c1=O (stereo not shown) [14-51]
phytotoxicity rating CORN ([1]; 63 g ai/ha): 0
phytotoxicity rating CORN ([1]; 250 g ai/ha): 0
phytotoxicity rating RICE ([2]; 63 g ai/ha): 0
phytotoxicity rating RICE ([2]; 250 g ai/ha): 0
phytotoxicity rating ECHCG ([3]; 63 g ai/ha): 0
phytotoxicity rating ECHCG ([3]; 250 g ai/ha): 0
phytotoxicity rating SETVI ([4]; 63 g ai/ha): 0
phytotoxicity rating SETVI ([4]; 250 g ai/ha): 0
phytotoxicity rating CHEAL ([5]; 63 g ai/ha): 90
phytotoxicity rating CHEAL ([5]; 250 g ai/ha): 100
phytotoxicity rating ABUTH ([6]; 63 g ai/ha): 10
phytotoxicity rating ABUTH ([6]; 250 g ai/ha): 100
phytotoxicity rating IPOHE ([7]; 63 g ai/ha): 0
phytotoxicity rating IPOHE ([7]; 250 g ai/ha): 50
phytotoxicity rating CASOB ([8]; 63 g ai/ha): 0
phytotoxicity rating CASOB ([8]; 250 g ai/ha): 0
phytotoxicity rating DIGSA ([9]; 63 g ai/ha): 0
phytotoxicity rating DIGSA ([9]; 250 g ai/ha): 0
phytotoxicity rating SORHA ([10]; 63 g ai/ha): 0
phytotoxicity rating SORHA ([10]; 250 g ai/ha): 0
Post-emerge phytotoxicity rating CORN (crop damage) ([11]; Rate 63 g ai/ha): 0
Post-emerge phytotoxicity rating CORN (crop damage) ([11]; Rate 250 g ai/ha): 0
Post-emerge phytotoxicity rating RICE (crop damage) ([12]; Rate 63 g ai/ha): 0
Post-emerge phytotoxicity rating RICE (crop damage) ([12]; Rate 250 g ai/ha): 0
Post-emerge Herbicidal Activity, phytotoxicity rating ECHCG ([13]; Rate 63 g ai/ha): 10
Post-emerge Herbicidal Activity, phytotoxicity rating ECHCG ([13]; Rate 250 g ai/ha): 20
Post-emerge Herbicidal Activity, phytotoxicity rating SETVI ([14]; Rate 63 g ai/ha): 0
Post-emerge Herbicidal Activity, phytotoxicity rating SETVI ([14]; Rate 250 g ai/ha): 0
Post-emerge Herbicidal Activity, phytotoxicity rating CHEAL ([15]; Rate 63 g ai/ha): 0
Post-emerge Herbicidal Activity, phytotoxicity rating CHEAL ([15]; Rate 250 g ai/ha): 10
Post-emerge Herbicidal Activity, phytotoxicity rating ABUTH ([16]; Rate 63 g ai/ha): 0
Post-emerge Herbicidal Activity, phytotoxicity rating ABUTH ([16]; Rate 250 g ai/ha): 50
Post-emerge Herbicidal Activity, phytotoxicity rating IPOHE ([17]; Rate 63 g ai/ha): 0
Post-emerge Herbicidal Activity, phytotoxicity rating IPOHE ([17]; Rate 250 g ai/ha): 30
Post-emerge Herbicidal Activity, phytotoxicity rating CASOB ([18]; Rate 63 g ai/ha): 0
Post-emerge Herbicidal Activity, phytotoxicity rating CASOB ([18]; Rate 250 g ai/ha): 0
Post-emerge Herbicidal Activity, phytotoxicity rating DIGSA ([19]; Rate 63 g ai/ha): 0
Post-emerge Herbicidal Activity, phytotoxicity rating DIGSA ([19]; Rate 250 g ai/ha): 0
Post-emerge Herbicidal Activity, phytotoxicity rating AMBEL ([20]; Rate 63 g ai/ha): 0
Post-emerge Herbicidal Activity, phytotoxicity rating AMBEL ([20]; Rate 250 g ai/ha): 20
Post-emerge Herbicidal Activity, phytotoxicity rating SORHA ([21]; Rate 63 g ai/ha): 0
Post-emerge Herbicidal Activity, phytotoxicity rating SORHA ([21]; Rate 250 g ai/ha): 0
Post-emerge Herbicidal Activity, phytotoxicity rating AMARE ([22]; Rate 63 g ai/ha): 0
Post-emerge Herbicidal Activity, phytotoxicity rating AMARE ([22]; Rate 250 g ai/ha): 0
phytotoxicity rating AMARE ([23]; 63 g ai/ha): 100
phytotoxicity rating AMARE ([23]; 250 g ai/ha): 100
